In patent publication EP4775570A1, “CYP11A1 INHIBITOR, PREPARATION METHOD THEREFOR AND USE THEREOF” (Shenzhen Zhongge Biological Technology Co., Ltd., priority 2023, dated 2025):

Target: T1, CYP11A1 (Homo sapiens, UniProt P05108)
T1 construct: host or cells: NCI-H295R
T1 sequence (P05108 40-521): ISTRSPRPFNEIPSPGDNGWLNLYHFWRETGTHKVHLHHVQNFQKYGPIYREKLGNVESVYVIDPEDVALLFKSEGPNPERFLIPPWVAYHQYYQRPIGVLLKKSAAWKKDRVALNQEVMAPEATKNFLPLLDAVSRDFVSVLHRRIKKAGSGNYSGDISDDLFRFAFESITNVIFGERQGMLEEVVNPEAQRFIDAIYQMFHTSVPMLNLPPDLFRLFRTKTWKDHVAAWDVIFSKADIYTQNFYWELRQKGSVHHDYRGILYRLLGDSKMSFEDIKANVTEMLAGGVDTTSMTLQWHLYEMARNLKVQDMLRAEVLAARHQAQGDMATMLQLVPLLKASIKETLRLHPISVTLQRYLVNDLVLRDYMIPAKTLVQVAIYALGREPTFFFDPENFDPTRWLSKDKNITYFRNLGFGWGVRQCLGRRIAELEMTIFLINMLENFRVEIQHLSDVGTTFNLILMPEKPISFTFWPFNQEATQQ
Experiment: NCI-H295R cellular pregnenolone biosynthesis inhibition assay (ELISA method)
Type: cell-based
Settings: NCI-H295R cells, 3 days incubation, pregnenolone in cell supernatant by ELISA; read-out: IC50
Protocol: The experiment aims to test the inhibitory effect of the compounds of the present disclosure on cellular pregnenolone biosynthesis, and to assess the inhibitory effect of the compounds on CYP11A1 target based on their IC50 values.
NCI-H295R cells (MINGZHOUBIO, MZ-2138) cultured in NCI-H295R complete medium (MINGZHOUBIO, MCM-0399).
Using culture medium, NCI-H295R cells were seeded into a new 384-well cell culture plate (Greiner, 781091) at a density of 5,000 cells per well, with 45µL of cell suspension per well. The test compounds were prepared by adding 5µL of compound solution at 10× concentration to each well, to a maximum final concentration of 10µM, followed by 3× serial dilution for 10 points, with a final DMSO concentration of 0.1%, centrifuging at 1,000 rpm for 1 minute at room temperature, and then incubating in a 5% CO2 cell incubator at 37°C for 3 days.
Pregnenolone ELISA kit (Abnova, KA1912) was used for detecting the content of pregnenolone in the supernatant of cell culture. Before detection, the reagents were allowed to come back to room temperature for 1 hour. After taking out the 384-well plate, the cellular supernatant was pipetted and subjected to 5× dilution with the Assay Buffer provided in the kit. A working solution of competitive molecule and a washing solution in accordance with the instructions was prepared. 50µL of diluted cellular supernatant were pipetted into the 96-well plate provided in the ELISA kit, added with 100µL of working solution of competitive molecule per well and the plate was incubated at room temperature for 1.5 hours. After discarding the liquid, the plate was washed with 300µL of washing solution per well three times and dried. After adding 150 µL of substrate chromogenic solution per well, the plate was incubated at room temperature for 10-15 minutes. After adding 50 µL of termination solution per well, the plate was incubated at room temperature for 10-15 minutes and read for absorbance at 450nm with Envision HTS Multilabel Reader.
The wells added with 1µM ODM-208 were defined as 100% inhibition (positive control), the wells containing DMSO at a final concentration of 0.1% were defined as 0% inhibition (negative control), and inhibitory ratio = (absorbance of tested sample - average absorbance of negative control)/(average absorbance of positive control - average absorbance of negative control)*100%. The data were subjected to four-parameter fitting using GraphPad Prism to calculate the IC50 values of the compounds.

IC50 [nM]	Compound
> 300	COc1cc(OCC2CCN(S(C)(=O)=O)CC2)c(F)cc1CN1Cc2ccccc2C1 [compound 23]
< 100	C=C(C)c1cc(CN2Cc3ccccc3C2)c(F)cc1OCC1CCN(S(C)(=O)=O)CC1 [compound 28]
> 300	CC(=O)N1CCN(c2cccc(Oc3ccc(CN4Cc5ccccc5C4)cc3F)c2)CC1 [compound 47]
> 300	CS(=O)(=O)N1CCC(CCc2sc(CN3Cc4ccccc4C3)cc2C#N)CC1 [compound 96]
< 100	CC(=O)N1CCC(CCSc2ccc(CN3Cc4ccccc4C3)cc2F)CC1 [compound 49]
100 to 300	COc1nc(CN2Cc3ccccc3C2)c(F)cc1CCC1CCN(S(C)(=O)=O)CC1 [compound 89]
> 300	COc1cc(CN2Cc3ccccc3C2)ccc1Oc1cccc2c1CCN(S(C)(=O)=O)C2 [compound 45]
< 100	CSc1cc(CN2Cc3ccccc3C2)c(F)cc1OCC1CCN(S(C)(=O)=O)CC1 [compound 33]
< 100	CCn1c(CN2Cc3ccccc3C2)c(F)cc(CCC2CCN(S(C)(=O)=O)CC2)c1=O [compound 107]
< 100	Cn1c(CN2Cc3ccccc3C2)c(F)cc(C(F)CC2CCN(S(C)(=O)=O)CC2)c1=O (stereo not drawn) [compound 124]
> 300	CS(=O)(=O)N1CCC(CN2CCOc3cc(CN4Cc5ccccc5C4)ccc32)CC1 [compound 57]
< 100	COc1cc(CN2Cc3ccccc3C2)ccc1C=CC1CCN(C(=O)OC(C)(C)C)CC1 [compound 50]
100 to 300	COc1cc(CN2Cc3ccccc3C2)ccc1CCN1CCN(S(C)(=O)=O)CC1 [compound 48]
100 to 300	C=C(C)c1cc(CN2Cc3ccccc3C2)ccc1OCC1CCN(S(C)(=O)=O)CC1 [compound 27]
< 100	COc1c(CCC2CCN(S(C)(=O)=O)CC2)ccc(CN2Cc3ccccc3C2)c1F [compound 85]
< 100	CCc1cc(CN2Cc3ccccc3C2)ccc1OCC1CCN(S(C)(=O)=O)CC1 [compound 13]
100 to 300	COc1nc(CN2Cc3ccccc3C2)ccc1OCC1CCN(S(C)(=O)=O)CC1 [compound 4]
> 300	CS(=O)(=O)N1CCC(COc2ccc(CN3Cc4ccccc4C3)nc2)CC1 [compound 8]
< 100	CS(=O)(=O)N1CCC(COc2ccc(CN3Cc4ccccc4C3)cc2Cl)CC1 [compound 16]
< 100	CS(=O)(=O)N1CCC(CCc2cc(F)c(CN3Cc4ccccc4C3)cc2C#N)CC1 [compound 59]
< 100	[2H]C([2H])(c1c(F)cc(CCC2CCN(S(C)(=O)=O)CC2)c(=O)n1C)N1Cc2ccccc2C1 [compound 116]

IC50 [nM]	Compound
< 100	CCC(C)Oc1cc(CN2Cc3ccccc3C2)c(F)cc1OCC1CCN(S(C)(=O)=O)CC1 (stereo not drawn) [compound 12]
> 300	COc1cc(CN2Cc3ccccc3C2)ccc1COC1CCN(S(C)(=O)=O)CC1 [compound 42]
< 100	COc1cc(CN2Cc3ccncc3C2)ccc1CCC1CCN(S(C)(=O)=O)CC1 [compound 63]
< 100	Cn1c(CN2Cc3ccccc3C2)ccc(CCC2CCN(S(C)(=O)=O)CC2)c1=O [compound 90]
< 100	CS(=O)(=O)N1CCC(COc2cc(F)c(CN3Cc4ccccc4C3)cc2Br)CC1 [compound 25]
< 100	[2H]C(c1c(F)cc(CCC2CCN(S(C)(=O)=O)CC2)c(=O)n1C)N1Cc2ccccc2C1 (stereo not drawn) [compound 108]
100 to 300	CS(=O)(=O)N1CCC(COc2ccc(CN3Cc4ccccc4C3)cc2-c2ncco2)CC1 [compound 37]
< 100	COc1cc(CN2Cc3ccccc3C2)ccc1CCC1CCN(S(=O)(=O)C2CC2)CC1 [compound 69]
< 100	COc1cc(CN2Cc3cccc(F)c3C2)c(F)cc1CCC1CCN(S(C)(=O)=O)CC1 [compound 66]
> 300	CS(=O)(=O)N1CCC(CCc2sc(CN3Cc4ccccc4C3)cc2Br)CC1 [compound 95]
< 100	Cn1c(CN2Cc3ccccc3C2)c(F)cc(C(=O)CC2CCN(C(=O)OC(C)(C)C)CC2)c1=O [compound 125]
> 300	Cn1c(CN2Cc3ccccc3C2)c(F)cc(CCC2CCCN(S(C)(=O)=O)C2)c1=O (stereo not drawn) [compound 91]
< 100	Cn1c(CN2Cc3ccccc3C2)c(F)cc(-c2cnc3c(c2)CCN(S(C)(=O)=O)C3)c1=O [compound 126]
< 100	CC(C)Oc1cc(CN2Cc3ccccc3C2)ccc1OCC1CCN(S(C)(=O)=O)CC1 [compound 21]
> 300	CC(C)c1cc(CN2Cc3ccccc3C2)c(F)cc1OCC1CCN(S(C)(=O)=O)CC1 [compound 31]
> 300	CS(=O)(=O)N1CCC(CCOc2cc(CN3Cc4ccccc4C3)ccn2)CC1 [compound 6]
< 100	CS(=O)(=O)N1CCC(CCc2ccc(CN3Cc4ccccc4C3)cc2Cl)CC1 [compound 84]
< 100	CS(=O)(=O)N1CCC(CCc2ccc(CN3Cc4ccccc4C3)cc2F)CC1 [compound 40]
< 100	Cc1cc(CN2Cc3ccccc3C2)ccc1OCC1CCN(S(C)(=O)=O)CC1 [compound 11]
< 100	Cn1c(CN2Cc3ccccc3C2)c(F)cc(CCC2CCN(S(C)(=O)=O)CC2(C)C)c1=O (stereo not drawn) [compound 114]
< 100	COc1c(CCC2CCN(S(C)(=O)=O)CC2)cc(F)c(CN2Cc3ccccc3C2)c1F [compound 64]

IC50 [nM]	Compound
100 to 300	CS(=O)(=O)N1CCC(CSc2ccc(CN3Cc4ccccc4C3)cc2F)CC1 [compound 43]
100 to 300	COc1cc(CN2Cc3ccccc3C2)c(F)cc1CCC1CCN(S(C)(=O)=O)CC1 [compound 41]
100 to 300	Cc1cc(CN2Cc3ccccc3C2)cc(F)c1OCC1CCN(S(C)(=O)=O)CC1 [compound 35]
< 100	[2H]C([2H])([2H])n1c(CN2Cc3ccccc3C2)c(F)cc(CCC2CCN(S(C)(=O)=O)CC2)c1=O [compound 106]
< 100	COc1cc(CN2Cc3ccccc3C2)ccc1CCC1CCN(S(=O)(=O)c2cccs2)CC1 [compound 78]
< 100	CC(C)c1cc(CN2Cc3ccccc3C2)ccc1CCC1CCN(S(C)(=O)=O)CC1 [compound 74]
< 100	Cn1c(CN2Cc3ccccc3C2)c(F)cc(C=CC2CCN(S(C)(=O)=O)CC2)c1=O [compound 104]
< 100	CC1CC(CCc2cc(F)c(CN3Cc4ccccc4C3)n(C)c2=O)CCN1C(=O)OC(C)(C)C (stereo not drawn) [compound 117]
< 100	CC(c1c(F)cc(CCC2CCN(S(C)(=O)=O)CC2)c(=O)n1C)N1Cc2ccccc2C1 (stereo not drawn) [compound 102]
< 100	CS(=O)(=O)N1CCC(CCc2ccc(CN3Cc4ccccc4C3)cc2C#N)CC1 [compound 54]
100 to 300	CS(=O)(=O)N1CCC(COc2ccc(CN3Cc4ccccc4C3)cc2OC(F)(F)F)CC1 [compound 20]
< 100	CC1CC(C#Cc2cc(F)c(CN3Cc4ccccc4C3)n(C)c2=O)CCN1C(=O)OC(C)(C)C (stereo not drawn) [compound 115]
> 300	Cn1c(CN2Cc3cccc(F)c3C2)c(F)cc(CCC2CCN(S(C)(=O)=O)CC2)c1=O [compound 100]
< 100	Cn1c(CN2Cc3ccccc3C2)c(F)cc(C(F)=CC2CCN(S(C)(=O)=O)CC2)c1=O [compound 123]
< 100	COc1cc(CN2Cc3ccccc3C2)ccc1CCC1CCN(S(=O)(=O)c2ccc(C)cc2)CC1 [compound 75]
< 100	CNC(=O)N1CCC(CCc2ccc(CN3Cc4ccccc4C3)cc2OC)CC1 [compound 79]
100 to 300	COc1cc(CN2Cc3ccccc3C2)ccc1CCC1CCN(S(=O)(=O)C(F)(F)F)CC1 [compound 77]
< 100	CS(=O)(=O)N1CCC(COc2ccc(CN3Cc4ccccc4C3)cc2)CC1 [compound 10]
< 100	C=CCOc1cc(CN2Cc3ccccc3C2)ccc1OCC1CCN(S(C)(=O)=O)CC1 [compound 29]
< 100	COc1cc(CN2Cc3ccccc3C2)c(F)cc1OCC1CCN(S(C)(=O)=O)CC1 [compound 22]
100 to 300	COc1cc(CN2Cc3cccnc3C2)ccc1CCC1CCN(S(C)(=O)=O)CC1 [compound 62]
